Here are results for 7 molecules from patent US20240317777A1, “NOVEL MACROCYCLIC AMINOPYRAZOLE COMPOUNDS AS CDK2 INHIBITORS” (Accutar Biotechnology Inc., priority 2023, published 2024).

The structures appear in SMILES notation. Where two headings read alike, the source gives them in different places.

Broadly, the IC50 is the midpoint of a concentration-inhibition curve.

Test [1] addresses CDK1-CYCLIN B (Homo sapiens, UniProt P06493). Description: CDK protein kinase inhibition by ADP-Glo assay, CDK1-CYCLIN B. The format is biochemical. To be noted: for IC50: ADP-Glo, 1000 μM ATP, read-out: CDK1-CYCLINB, IC50. The method, then: (§1) CDK Protein Kinase Inhibition by ADP-Glo Assay
(§2) This ADP-Glo assay measures ADP formed from a kinase reaction and indirectly quantifies the phosphorylation of peptide substrates by the CDK/cyclin protein complexes. The typical assays were carried out in Nanosyn by combining kinase/cyclin complexes, substrates, compounds, and cofactors (ATP and Mg2+) in a well of a 384-well microtiter plate (Corning 3824) and incubating at 22° C. (Table 1). At the end of the incubation, the reaction is quenched, and conversion is detected by luminescence using the Promega ADP-Glo™ Kinase Assay kit (catalog #V9102).
(§3) Final assay buffer mixture contains: • 100 mM HEPES, pH 7.5 • 0.1% BSA • 0.01% Triton X-100 • 1 mM DTT • 5 mM MgCl2 • 10 μM Sodium Orthovanadate • 100 μM Beta-Glycerophosphate • 1000 μM Ultra Pure ATP (provided in the Promega ADP-Glo™ Kinase Assay kit) • 1% DMSO (from compound)
(§4) Upon completion, 5 μL of the ADP Glo reagent was added to each well and the plate was further incubated at room temperature for 45 minutes. 10 uL of the Kinase Detection Reagent was subsequently added to each well. After 10 minutes of incubation, the plate was read and analyzed on the BioTek Synergy microplate reader using BioTek Gen5 software.

The target of test [2] is CDK2-CYCLIN E1 (Homo sapiens, UniProt P24941). The test is described as follows: CDK protein kinase inhibition by ADP-Glo assay, CDK2-CYCLIN E1. The format is biochemical. The conditions noted are these: ADP-Glo, 1000 μM ATP, read-out: CDK2-CYCLINE, IC50. The method, then:
as §1, §2, §3, §4
For orientation: In ADP-Glo the light output rises with the ADP produced.

The target of test [3] is CDK4-CYCLIN D1 (Homo sapiens, UniProt P11802). Description: CDK protein kinase inhibition by ADP-Glo assay, CDK4-CYCLIN D1. The format is biochemical. The conditions noted are these: for IC50: ADP-Glo, 1000 μM ATP, read-out: CDK4-CYCLIND1, IC50. On the procedure:
as §1, §2, §3, §4

Test [4] addresses CDK6-CYCLIN D3 (Homo sapiens, UniProt Q00534). Description: CDK protein kinase inhibition by ADP-Glo assay, CDK6-CYCLIN D3. The conditions noted are these: for IC50: ADP-Glo, 1000 μM ATP, read-out: CDK6-CYCLIND3, IC50. The format is biochemical. The method, then:
as §1, §2, §3, §4

The target in test [5] is CDK9-CYCLIN T1 (Homo sapiens, UniProt P50750). The test is described as follows: CDK protein kinase inhibition by ADP-Glo assay, CDK9-CYCLIN T1. The format is biochemical. The conditions noted are these: for IC50: ADP-Glo, 1000 μM ATP, read-out: CDK9-CYCLINT1, IC50. On the procedure: as §1, §2, §3, §4
For test [6], the system named is Phospho-Rb (Ser807/811) in OVCAR3 cells. Description: Phospho-Rb expression inhibition in OVCAR3 cells quantified by In Cell Western. To be noted: Homo sapiens, OVCAR-3, 24 hours, read-out: OVCAR-3 pRb IC50. The format is cell-based. Summed up:
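In-cell western: after 24 h compound exposure at 37° C, fixed OVCAR3 cells co-stained for pRb Ser807/811 (800 nm channel) and total Rb (680 nm channel), imaged by LI-COR Odyssey.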

Test [7] concerns CCNE1-amplified OVCAR3 cells. Description: Cell growth inhibition of CCNE1-amplified OVCAR3 cells (CellTiter-Glo). The conditions noted are these: Homo sapiens, OVCAR-3, 144 h, 6 days. The format is cell-based. Summed up: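 Growth read-out was CellTiter-Glo luminescence, taken after 10 min at room temperature at the end of a 6-day compound exposure at 37 °C. Compounds were diluted from DMSO stocks across various concentrations.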
In general terms: ATP-based viability assays read luminescence as a measure of living cells.

For test [8], the system named is CCNE1-normal SKOV3 cells. The test is described as follows: Cell growth inhibition of CCNE1-normal SKOV3 cells (CellTiter-Glo). The conditions noted are these: Homo sapiens, SK-OV-3, 144 h, 6 days. The format is cell-based. An outline of the steps:
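Growth was measured by CellTiter-Glo luminescence after 6 days' compound exposure at 37 °C. Cells were plated one day before dosing at 1000 per well in medium with 10% FBS, and compounds were diluted from DMSO stocks.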

Chain of CDK4-CYCLIN D1 (P11802 whole entry): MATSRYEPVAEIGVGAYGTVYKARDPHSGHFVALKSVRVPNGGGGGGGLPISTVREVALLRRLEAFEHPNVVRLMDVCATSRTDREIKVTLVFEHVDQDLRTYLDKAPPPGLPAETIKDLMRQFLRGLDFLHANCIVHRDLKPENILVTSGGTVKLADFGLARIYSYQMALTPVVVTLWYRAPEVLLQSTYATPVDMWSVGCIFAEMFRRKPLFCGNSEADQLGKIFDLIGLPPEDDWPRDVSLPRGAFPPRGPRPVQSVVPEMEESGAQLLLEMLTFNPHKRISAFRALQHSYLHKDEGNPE
Chain of CDK4-CYCLIN D1 (P24385 whole entry partner): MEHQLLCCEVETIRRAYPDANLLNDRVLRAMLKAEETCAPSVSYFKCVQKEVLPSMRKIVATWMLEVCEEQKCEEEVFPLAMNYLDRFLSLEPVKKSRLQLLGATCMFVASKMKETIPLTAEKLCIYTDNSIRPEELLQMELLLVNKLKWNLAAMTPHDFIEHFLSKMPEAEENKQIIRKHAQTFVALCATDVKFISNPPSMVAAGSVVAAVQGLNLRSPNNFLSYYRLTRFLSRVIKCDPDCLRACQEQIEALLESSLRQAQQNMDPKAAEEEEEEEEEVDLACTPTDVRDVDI
Chain of CDK6-CYCLIN D3 (Q00534 whole entry): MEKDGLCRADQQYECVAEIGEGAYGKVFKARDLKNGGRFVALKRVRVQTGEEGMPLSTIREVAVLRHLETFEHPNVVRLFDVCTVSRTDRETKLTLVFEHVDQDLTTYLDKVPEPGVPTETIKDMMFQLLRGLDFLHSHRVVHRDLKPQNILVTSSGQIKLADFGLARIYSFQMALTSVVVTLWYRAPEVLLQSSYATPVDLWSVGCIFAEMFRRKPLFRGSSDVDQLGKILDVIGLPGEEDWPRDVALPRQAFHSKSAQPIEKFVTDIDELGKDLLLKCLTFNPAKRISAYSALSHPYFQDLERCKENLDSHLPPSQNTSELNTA
Chain of CDK6-CYCLIN D3 (P30281 whole entry partner): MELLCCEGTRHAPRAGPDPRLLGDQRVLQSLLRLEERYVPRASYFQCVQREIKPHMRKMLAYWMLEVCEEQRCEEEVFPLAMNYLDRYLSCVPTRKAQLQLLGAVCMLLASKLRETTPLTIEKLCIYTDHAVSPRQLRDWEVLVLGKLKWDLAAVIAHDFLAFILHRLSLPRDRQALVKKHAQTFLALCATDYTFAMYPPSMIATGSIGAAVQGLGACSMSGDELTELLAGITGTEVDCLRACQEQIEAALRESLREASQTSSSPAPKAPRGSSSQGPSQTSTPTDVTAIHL
Chain of CDK1-CYCLIN B (P06493 whole entry): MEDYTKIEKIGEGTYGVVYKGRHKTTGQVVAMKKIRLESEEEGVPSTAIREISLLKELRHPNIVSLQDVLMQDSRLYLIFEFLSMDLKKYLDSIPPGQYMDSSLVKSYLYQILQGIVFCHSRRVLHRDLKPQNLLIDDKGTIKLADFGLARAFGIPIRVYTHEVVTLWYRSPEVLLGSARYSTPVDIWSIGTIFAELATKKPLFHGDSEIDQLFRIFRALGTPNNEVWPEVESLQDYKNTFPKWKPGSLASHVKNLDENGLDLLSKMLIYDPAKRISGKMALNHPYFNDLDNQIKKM
Chain of CDK1-CYCLIN B (P14635 whole entry partner): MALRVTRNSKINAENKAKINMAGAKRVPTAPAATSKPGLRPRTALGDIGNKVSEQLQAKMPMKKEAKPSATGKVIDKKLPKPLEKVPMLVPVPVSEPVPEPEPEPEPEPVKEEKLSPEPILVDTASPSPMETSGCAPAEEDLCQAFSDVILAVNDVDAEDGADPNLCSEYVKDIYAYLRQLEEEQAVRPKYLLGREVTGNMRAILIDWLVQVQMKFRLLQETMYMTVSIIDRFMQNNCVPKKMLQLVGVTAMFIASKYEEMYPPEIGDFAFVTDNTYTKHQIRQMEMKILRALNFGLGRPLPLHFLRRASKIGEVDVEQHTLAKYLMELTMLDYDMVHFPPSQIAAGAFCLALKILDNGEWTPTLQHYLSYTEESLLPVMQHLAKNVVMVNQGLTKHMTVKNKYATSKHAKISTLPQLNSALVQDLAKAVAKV
Chain of CDK9-CYCLIN T1 (P50750 whole entry): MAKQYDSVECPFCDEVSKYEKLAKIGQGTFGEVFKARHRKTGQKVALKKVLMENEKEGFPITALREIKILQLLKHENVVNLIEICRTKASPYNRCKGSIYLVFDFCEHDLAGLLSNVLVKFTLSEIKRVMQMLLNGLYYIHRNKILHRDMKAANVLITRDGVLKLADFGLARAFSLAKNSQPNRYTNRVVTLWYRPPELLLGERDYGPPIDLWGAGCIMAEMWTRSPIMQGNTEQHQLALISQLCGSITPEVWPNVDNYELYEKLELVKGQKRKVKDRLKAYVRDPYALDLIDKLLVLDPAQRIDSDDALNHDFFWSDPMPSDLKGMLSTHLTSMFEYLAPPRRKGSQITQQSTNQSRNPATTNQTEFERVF
Chain of CDK9-CYCLIN T1 (O60563 whole entry partner): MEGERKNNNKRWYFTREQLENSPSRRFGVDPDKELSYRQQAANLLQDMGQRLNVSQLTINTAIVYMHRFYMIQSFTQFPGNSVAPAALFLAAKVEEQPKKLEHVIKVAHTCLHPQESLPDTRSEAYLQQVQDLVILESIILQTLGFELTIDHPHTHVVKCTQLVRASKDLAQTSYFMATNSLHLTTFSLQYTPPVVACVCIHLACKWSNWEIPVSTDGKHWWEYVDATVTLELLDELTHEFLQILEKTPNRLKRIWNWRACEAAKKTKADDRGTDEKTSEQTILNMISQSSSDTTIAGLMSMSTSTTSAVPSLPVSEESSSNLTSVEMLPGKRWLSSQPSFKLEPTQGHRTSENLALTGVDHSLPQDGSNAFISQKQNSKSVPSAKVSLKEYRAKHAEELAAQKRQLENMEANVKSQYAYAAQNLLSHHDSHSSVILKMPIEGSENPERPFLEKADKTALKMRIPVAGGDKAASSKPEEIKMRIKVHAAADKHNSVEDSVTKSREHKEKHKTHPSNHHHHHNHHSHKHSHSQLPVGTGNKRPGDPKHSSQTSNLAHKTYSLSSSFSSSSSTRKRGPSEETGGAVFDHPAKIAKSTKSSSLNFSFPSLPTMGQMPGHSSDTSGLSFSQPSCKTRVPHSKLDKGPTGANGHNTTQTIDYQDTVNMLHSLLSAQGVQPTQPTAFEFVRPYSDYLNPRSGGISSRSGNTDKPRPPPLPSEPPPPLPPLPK

Regarding `O=C1NCCCCOc2cncc(c2)Nc2cc(n[nH]2)[C@H]2CC[C@H](C2)O1` [compound 104], the IC50 in test [1] (Table 7) is 10 to 50 nM; in test [2] (Table 7), at most 10 nM; in test [3] (Table 7), 50 to 100 nM; in test [4] (Table 7) it was 10 to 50 nM; in test [5] (Table 7), 100 to 500 nM; in test [6], 2 to 10 nM. Further, the IC50 in test [7] was 10 to 50 nM; in test [8], above 1250 nM.

Take `C[C@H]1CC23CC(C2)(C3)NC(=O)O[C@@H]2CC[C@@H](C2)c2cc([nH]n2)Nc2ccnc(c2)O1` [Compound 102, (1^1S,1^3R,6S,Z)-6-methyl-2^1H-5,11-dioxa-3,9-diaza-4(4,2)-pyridina-2(3,5)-pyrazola-8(1,3)-bicyclo[1.1.1]pentana-1(1,3)-cyclopentanacycloundecaphan-10-one]: the IC50 is at most 10 nM in test [1] (Table 17); at most 10 nM in test [2] (Table 17); 100 to 500 nM in test [3] (Table 17); 100 to 500 nM in test [4] (Table 17); 10 to 50 nM in test [5] (Table 17); at most 2 nM in test [6]. In addition, the IC50 in test [7] is 2 to 10 nM; in test [8], 50 to 250 nM. In addition, the “CDK2 Fold selectivity, CDK1” value in test [1] (CDK2 versus CDK1, Table 18) is on record as “E (E, <20)”. Moreover, the “CDK2 Fold selectivity, CDK4” value in test [3] (CDK2 versus CDK4, Table 18) was “C (C, >50 and ≤100)”. For the same molecule, in test [4] (CDK2 versus CDK6, Table 18), the “CDK2 Fold selectivity, CDK6” value is “C (C, >50 and ≤100)”. The “CDK2 Fold selectivity, CDK9” value in test [5] (CDK2 versus CDK9, Table 18) is reported as “E (E, <20)”.

For `C[C@@H]1CCCNC(=O)O[C@@H]2CC[C@@H](C2)c2cc([nH]n2)Nc2cncc(c2)O1` [Compound 121, (1^1S,1^3R,6R,Z)-6-methyl-2^1H-5,12-dioxa-3,10-diaza-4(3,5)-pyridina-2(3,5)-pyrazola-1(1,3)-cyclopentanacyclododecaphan-11-one], the IC50 is 100 to 500 nM in test [1] (Table 13); at most 10 nM in test [2] (Table 13); above 500 nM in test [3] (Table 13); 100 to 500 nM in test [4] (Table 13); 100 to 500 nM in test [5] (Table 13); 10 to 50 nM in test [6]. In addition, the 50% inhibitory concentration (IC50) in test [7] is 50 to 250 nM; in test [8] it was above 1250 nM. In addition, the “CDK2 Fold selectivity, CDK1” value in test [1] (CDK2 versus CDK1, Table 14) is “D (D, >20 and ≤50)”. Further, the “CDK2 Fold selectivity, CDK4” value in test [3] (CDK2 versus CDK4, Table 14) was “B (B, >100 and ≤500)”. For the same molecule, the “CDK2 Fold selectivity, CDK6” value in test [4] (CDK2 versus CDK6, Table 14) is “C (C, >50 and ≤100)”. The “CDK2 Fold selectivity, CDK9” value in test [5] (CDK2 versus CDK9, Table 14) is “B (B, >100 and ≤500)”.

As to `C[C@@H]1CCCOc2cc(ccn2)Nc2cc([nH]n2)[C@H]2CC[C@H](C2)OC(=O)N1` [Compound 10, (1^1S,1^3R,9R,Z)-9-methyl-2^1H-5,12-dioxa-3,10-diaza-4(4,2)-pyridina-2(3,5)-pyrazola-1(1,3)-cyclopentanacyclododecaphan-11-one], the IC50 is 100 to 500 nM in test [1] (Table 7); at most 10 nM in test [2] (Table 7); 100 to 500 nM in test [3] (Table 7); 100 to 500 nM in test [4] (Table 7); above 500 nM in test [5] (Table 7); 10 to 50 nM in test [6]. Also, the values for the IC50 in test [7] and in test [8] were 50 to 250 nM and above 1250 nM, respectively. The “CDK2 fold selectivity over CDK1” value in test [1] (CDK2 versus CDK1, Table 8) is “D (D, >20 and ≤50)”. Further, the “CDK2 Fold Sensitivity, CDK4” value in test [3] (CDK2 versus CDK4, Table 8) was “C (C, >50 and ≤100)”. In addition, the “CDK2 Fold Sensitivity, CDK6” value in test [4] (CDK2 versus CDK6, Table 8) was “C (C, >50 and ≤100)”. In addition, the “CDK2 Fold Sensitivity, CDK9” value in test [5] (CDK2 versus CDK9, Table 8) is “B (B, >100 and ≤500)”.

As to `C[C@H]1OCCCNC(=O)O[C@@H]2CC[C@@H](C2)c2cc([nH]n2)Nc2ccnc1c2` [compound 71], the IC50 was 50 to 100 nM in test [1] (Table 15); at most 10 nM in test [2] (Table 15); 100 to 500 nM in test [3] (Table 15); 100 to 500 nM in test [4] (Table 15); 100 to 500 nM in test [5] (Table 15); 2 to 10 nM in test [6]. Also, the IC50 in test [7] fell in the range of 10 to 50 nM; in test [8] it was 50 to 250 nM.

On to `O=C1NC2CC3(C2)CC(C3)Oc2cc(ccn2)Nc2cc(n[nH]2)[C@H]2CC[C@H](C2)O1` [Compound 128, (6^1S,6^3R,Z)-5^1H-2,7-dioxa-4,9-diaza-3(2,4)-pyridina-5(5,3)-pyrazola-6(1,3)-cyclopentana-1,10(1,3)-dicyclobutanadecaphan-8-one], for which the IC50 in test [1] (Table 17) was 10 to 50 nM; in test [2] (Table 17), at most 10 nM; in test [3] (Table 17), 10 to 50 nM; in test [4] (Table 17), 10 to 50 nM; in test [5] (Table 17), 10 to 50 nM; in test [6], 2 to 10 nM. In addition, the IC50 in test [7] fell in the range of 2 to 10 nM; in test [8], 250 to 1250 nM. The “CDK2 Fold selectivity, CDK1” value in test [1] (CDK2 versus CDK1, Table 18) is “E (E, <20)”. Further, the “CDK2 Fold selectivity, CDK4” value in test [3] (CDK2 versus CDK4, Table 18) is “D (D, >20 and ≤50)”. For the same molecule, the “CDK2 Fold selectivity, CDK6” value in test [4] (CDK2 versus CDK6, Table 18) was “E (E, <20)”. For the same molecule, the “CDK2 Fold selectivity, CDK9” value in test [5] (CDK2 versus CDK9, Table 18) is listed as “E (E, <20)”.

Consider `C[C@H]1CCCNC(=O)O[C@@H]2CC[C@@H](C2)c2cc([nH]n2)Nc2cnnc(c2)O1` [Compound 155, (1^1S,1^3R,6S,Z)-6-methyl-2^1H-5,12-dioxa-3,10-diaza-4(5,3)-pyridazina-2(3,5)-pyrazola-1(1,3)-cyclopentanacyclododecaphan-11-one], for which the IC50 in test [1] (Table 25) is 10 to 50 nM; in test [2] (Table 25) it was at most 10 nM; in test [3] (Table 25), 100 to 500 nM; in test [4] (Table 25), 100 to 500 nM; in test [5] (Table 25) it was above 500 nM; in test [6], 10 to 50 nM. Moreover, the IC50 in test [7] is 50 to 250 nM; in test [8], above 1250 nM. Also, the “CDK2 Fold selectivity, CDK1” value in test [1] (CDK2 versus CDK1, Table 26) is reported as “E (E, <20)”. Moreover, the “CDK2 Fold selectivity, CDK4” value in test [3] (CDK2 versus CDK4, Table 26) is “D (D, >20 and ≤50)”. Further, the “CDK2 Fold selectivity, CDK6” value in test [4] (CDK2 versus CDK6, Table 26) was “D (D, >20 and ≤50)”. Moreover, in test [5] (CDK2 versus CDK9, Table 26), the “CDK2 Fold selectivity, CDK9” value was “B (B, >100 and ≤500)”.
